System: Yop
Conditions: for percentage activity of Yop relative to control: 1 μM compound, phosphatase 0.1 nM, pNPP, average of three enzyme preparations ± S.D.

Structure (SMILES) | inhibition of Yop (1 μM) [%] | percentage activity of Yop relative to control [%] | PTP inhibition of Yop at neutral pH (neutral pH, results not shown)
Cn1nc2c(nc1=O)c(=O)n(C)c(=O)n2C [Compound 3, 2,8-dihydro-2,6,8-trimethyl-pyrimido[5,4-e]-1,2,4-triazine-3,5,7(6H)-trione] | ~90 | 10 ± 1.0 | continues to behave as a PTP inhibitor
[Na+].[Na+].[Na+].[O]=[V]([O-])([O-])[O-] [Na3VO4, sodium orthovanadate, reference compound] | – | 14 ± 1.0 | –
Cn1nc2c(nc1=O)n(C)c(=O)n2C [Compound 4, 2,5,7-trimethyl-2,7-dihydro-5H-imidazo[4,5-e]-1,2,4-triazine-3,6-dione] | – | 95 ± 4.0 | –

Source: patent US7199121B2, “Protein tyrosine phosphatase inhibitor” (Institute of Molecular and Cell Biology, priority 2000, dated 2007)
